# Molecular target: T1, human 5-HT6 receptor (Homo sapiens, UniProt P50406)
# T1 construct: host or cells: CHO-K1 cells, stably transfected; membranes prepared in house
# Test: Human 5-HT6 Receptor Binding Assay ([3H]LSD displacement, scintillation beads)
# Details: membranes of CHO-K1 cells with recombinant human 5-HT6, 4 nM [3H]LSD; Table 1, class symbols; read-out: h5-HT6 (Ki)
# T1 sequence (P50406 whole entry): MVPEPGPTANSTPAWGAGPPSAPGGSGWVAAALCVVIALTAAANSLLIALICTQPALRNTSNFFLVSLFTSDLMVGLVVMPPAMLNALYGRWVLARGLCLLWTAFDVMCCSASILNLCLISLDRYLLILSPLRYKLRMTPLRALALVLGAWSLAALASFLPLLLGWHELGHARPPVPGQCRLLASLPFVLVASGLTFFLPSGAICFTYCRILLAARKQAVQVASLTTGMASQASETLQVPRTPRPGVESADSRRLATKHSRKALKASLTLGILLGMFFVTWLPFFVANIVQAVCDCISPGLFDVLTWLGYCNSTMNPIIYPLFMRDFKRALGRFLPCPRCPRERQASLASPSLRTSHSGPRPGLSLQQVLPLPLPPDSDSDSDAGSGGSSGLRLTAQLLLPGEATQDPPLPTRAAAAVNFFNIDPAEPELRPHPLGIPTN
row,SMILES,Ki [nM]
1,"O=S(=O)(c1cccc(OC(F)(F)F)c1)c1ccc2c(c1)OC1CNCCC21 (stereo not shown) [Example 160, 7-{[3-(trifluoromethoxy)phenyl]sulfo-nyl}-1,2,3,4,4a,9a-hexahydro[1]benzofuro[2,3-c]pyridine]",< 500
2,COc1cc(OC)cc(S(=O)(=O)c2ccc3c(c2)OC2CNCCC32)c1 (stereo not shown) [Example 480],< 500
3,O=S(=O)(Oc1ccc2c(c1)C1CCNCC1O2)c1cccc(F)c1 (stereo not shown) [Example 701],> 1000
4,CC1NCCc2c1oc1ccc(S(=O)(=O)c3cccc(C(F)(F)F)c3)cc21 (stereo not shown) [Example 282],< 500
5,CC1(C)CNCc2oc3cc(S(=O)(=O)c4ccccc4)ccc3c21 [Example 286],< 500
6,CC(C)c1ccc(S(=O)(=O)Oc2ccc3c(c2)C2CCNCC2O3)cc1 (stereo not shown) [Example 716],< 500
7,O=S(=O)(Oc1ccc2c(c1)C1CCNCC1O2)c1cc(Cl)cc(Cl)c1 (stereo not shown) [Example 739],< 500
8,O=S(=O)(Oc1ccc2c(c1)C1CCNCC1O2)c1c(Cl)cccc1Cl (stereo not shown) [Example 741],< 500
9,"CN(c1ccc2c(c1)OC1CNCCC21)S(=O)(=O)c1c(Cl)nc2sccn12 (stereo not shown) [Example 835, 6-Chloro-N-[1,2,3,4,4a,9a-hexahydro[1]benzofuro[2,3-c]pyridin-7-yl]-N-methylimidazo[2,1-b][1,3]thiazole-5-sulfonamide]",< 500
10,O=S(=O)(Oc1ccc2c(c1)OC1CN(C3CCCC3)CCC21)c1ccc(Cl)cc1 (stereo not shown) [Example 801],> 1000
11,CC12CCNCC1Oc1ccc(OS(=O)(=O)c3csc4ccccc34)cc12 (stereo not shown) [Example 771],< 500
12,CC1(C)CNC2(CCOC2)c2oc3cc([S+]([O-])c4cncc(Cl)c4)ccc3c21 (stereo not shown) [Example 455],> 1000
13,CC1(C)NCCc2c1oc1cc(S(=O)(=O)c3cccc4c3OCCO4)ccc21 [Example 466],< 500
14,COCC1(C)NCCc2c1oc1cc(S(=O)(=O)c3cccc(F)c3)ccc21 (stereo not shown) [Example 634],< 500
15,O=S(=O)(Cc1cccc(C(F)(F)F)c1)Oc1ccc2c(c1)C1CCNCC1O2 (stereo not shown) [Example 750],> 1000
16,CC12CCN(Cc3ccccc3)CC1Oc1ccc(OS(=O)(=O)Cc3ccccc3)cc12 (stereo not shown) [Example 808],> 1000
17,O=S(=O)(c1cccc(OCCn2cccc2)c1)c1ccc2c(c1)OC1CNCCC21 (stereo not shown) [Example 573],< 500
18,"O=S(=O)(Nc1ccc2c(c1)C1CCNCC1O2)c1ccccc1 (stereo not shown) [Example 817, N-(1,2,3,4,4a,9a-Hexahydro[1]benzofuro[2,3-c]pyridin-6-yl)benzenesulfonamide]",> 1000
19,COc1ccc(S(=O)(=O)c2ccc3c(c2)C2CCNCC2O3)cc1OC (stereo not shown) [Example 171],> 1000
20,COc1ccc(S(=O)(=O)c2ccc3c4c(oc3c2)CNCC4)cc1 [Example 198],< 500
21,O=[N+]([O-])c1ccc(S(=O)(=O)Oc2ccc3c(c2)OC2CNCCC32)cc1 (stereo not shown) [Example 688],500 to 1000
22,COC(=O)CCCCOc1cccc(S(=O)(=O)c2ccc3c(c2)OC2CNCCC32)c1 (stereo not shown) [Example 556],< 500
23,O=[N+]([O-])c1ccc(S(=O)(=O)c2ccc3oc4c(c3c2)CCNC4)cc1 [Example 253],> 1000
24,O=S(=O)(Oc1ccc2c(c1)C1CCNCC1O2)c1cccc2cccnc12 (stereo not shown) [Example 722],500 to 1000
25,Cc1cc(S(=O)(=O)c2ccc3c(c2)OC2CNCCC32)ccc1F (stereo not shown) [Example 137],< 500
26,"CC1(C)CNC2(CCOC2)c2oc3cc(S(=O)(=O)c4cccc(F)c4)ccc3c21 (racemic) [Example 46, 7-[(3-fluorophenyl)sulfonyl]-4,4-dimethyl-3,4,4′,5′-tetrahydro-2H-spiro[1-benzofuro[2,3-c]pyridine-1,3′-furan]]",< 500
27,Cc1cc(C)c(S(=O)(=O)Oc2ccc3c(c2)C2CCNCC2O3)c(C)c1 (stereo not shown) [Example 715],< 500
28,"Cc1cccc(S(=O)(=O)c2ccc3c4c(oc3c2)C(C)(C)NCC4)n1 [Example 19, 1,1-dimethyl-7-[(6-methylpyridin-2-yl)sulfonyl]-1,2,3,4-tetrahydro[1]benzofuro[2,3-c]pyridine]",< 500

# Source: patent US8765779B2, “Tricyclic derivatives and their pharmaceutical use and compositions” (Cephalon, Inc., priority 2009, dated 2014)
